# Experimental data as given in patent US11561217B2, “Compounds inhibiting Nef-calnexin interaction” (The George Washington University, a Congressionally …, priority 2016, dated 2023).
# “Also recorded” adds a separate entry of the source.
# Columns and labels:
# Nef/CNX interaction = biological target: T1, Nef/CNX interaction (Human immunodeficiency virus type 1 group M subtype B, UniProt P03406); assay: Co-immunoprecipitation of Nef and calnexin in transfected HEK293T cells; type: cell-based, HIV-1; conditions: for inhibition of co-immunoprecipitation of Nef and calnexin: added 6 h post-transfection, lysed 48 h post-transfection, HEK293T
# T1 construct: expressed in transfected cells; host or cells: HEK293T
# Experimental: (§1) To test whether the compounds identified in the virtual screen can interfere with Nef/CNX interaction, a co-immunoprecipitation assay was performed. HEK293T cells were transfected with plasmid encoding for NefBRU and 6 h post-transfection were treated with NSC 1758 (4 μM), NSC 13987 (5 μM), or NSC 92938 (5 μM). These concentrations of the compounds were determined by the MTT assay to reduce cell metabolism by less than 10% during 5-day incubation (FIG. 6C). […] It was previously shown that membrane localization of Nef is important for interaction of Nef with calnexin (5). In order to rule out the possibility that the compound interferes with membrane localization of Nef, it was tested whether NSC 13987 affects interaction between Nef and ABCA1, as ABCA1/Nef interaction also requires membrane localization of Nef (1).
# Their overall location in the structural alignment with the model of Nef-CNX complex is shown as translucent molecular surface. […] The set of compounds includes NSC 1758, NSC 13987, and NSC 92938 selected for experimental testing. b, Compound NSC 13987 docked to Nef binding site, which is centered on Lys4 and Lys7. Interactions of the compound with Nef include two hydrogen bonds with Nef amino acid residues Ser6 and Tyr124. […] THP-1 cells were treated with indicated compounds for 5 days and cytotoxicity was measured using MTT assay. In panel (D), HEK 293T cells were transfected with HA-tagged Nef, treated with compounds NSC 1758, NSC 13987 or NSC 92938, and lysed. Nef was immunoprecipitated using anti-HA agarose beads and bound complexes were immunoblotted for Nef and calnexin (left panels labeled IP: aIIA). Densitometric quantification of calnexin co-immunoprecipitation with Nef is presented in the right panel. Error bars indicate +/−SD of 3 independent experiments, and p values are shown above the bars. Whole cell lysates were analyzed for amount of calnexin, Nef and GAPDH (left panels labeled Lysate). In panel (E), HEK293T cells were co-transfected with ABCA1-FLAG and NefBRU and treated with compound NSC 13987. Cells were lysed 48 h post-transfection and ABCA1-FLAG was immunoprecipitated using anti-FLAG beads. Precipitated complexes were blotted for ABCA1 and Nef (top panels). Input amount was analyzed from whole cell lysates by immunoblotting for ABCA1, Nef and GAPDH (bottom panels).
# Immunoprecipitation—For calnexin mutant/Nef interaction analysis, HEK293T cells were transfected with HA-tagged calnexin mutants and NefBRU expression plasmid. Cells were lysed 48 h post-transfection with 1% IGEPAL and 0.1% SDS lysis buffer on ice for 30 min. Lysates were incubated with anti-HA agarose beads for 2 h at 4° C. with rotation. Respective immunoprecipitates were washed three times with TBS (150 mM NaCl, 30 mM Tris-HCl, 5 mM EDTA, pH 7.5). […]
# [1] = tested on: THP-1 cells transfected with Nef; assay: apoA-I specific cholesterol efflux in Nef-transfected THP-1 cells; type: cell-based; conditions: THP-1, PMA-activated, compared to DMSO-treated Nef expressing cells
# Experimental: Next, it was tested whether the three compounds could prevent impairment of cholesterol efflux by Nef. THP-1 cells were transfected with a Nef encoding plasmid and drug treatment was started 6 h after transfection. The following day cells were activated with PMA after which cholesterol efflux assay was performed. Drug treatment was continued throughout the duration of the experiment. […] Cholesterol efflux in Nef-transfected untreated or DMSO-treated cells was reduced by over 2-fold relative to mock-transfected cells.
# Specifically, in panel (A) THP-1 cells were transfected with Nef and incubated with compounds NSC 1758, NSC 13987 and NSC 92938 or DMSO, and cholesterol efflux was measured 5 days post-transfection. Error bars show SEM. In panel (B) primary macrophages were infected in triplicate with HIV-1 ADA. Compound NSC 13987 (5 μM) or DMSO was added 3 days after infection and maintained thereafter, and virus replication was monitored by measuring RT-activity in the supernatant over a 14-day period. […] In panel (C) primary macrophages were infected with HIV-1 ADA or mock-infected and treated with DMSO or NSC13987 as in panel B. Cholesterol efflux was measured 14 days post-infection. […]
# Cholesterol Efflux—Infected cells were seeded in a 24-well plate and labeled with [^3H] cholesterol for 48 h. […] Level of radioactivity in the media as well as in the cells was determined by scintillation counting. […]
# ABCA1/Nef interaction = biological target: T2, ABCA1/Nef interaction (Human immunodeficiency virus type 1 group M subtype B, UniProt P03406); assay: Co-immunoprecipitation of ABCA1-FLAG and Nef in HEK293T cells; type: cell-based, HIV-1; conditions: HEK293T co-transfected with ABCA1-FLAG and NefBRU, lysed 48 h post-transfection
# T2 construct: expressed in transfected cells; host or cells: HEK293T
# Experimental: as §1
# Their overall location in the structural alignment with the model of Nef-CNX complex is shown as translucent molecular surface. […] THP-1 cells were treated with indicated compounds for 5 days and cytotoxicity was measured using MTT assay. […] Densitometric quantification of calnexin co-immunoprecipitation with Nef is presented in the right panel. […] Whole cell lysates were analyzed for amount of calnexin, Nef and GAPDH (left panels labeled Lysate). […] Input amount was analyzed from whole cell lysates by immunoblotting for ABCA1, Nef and GAPDH (bottom panels).
# HIV-1 ADA = HIV-1 ADA replication in monocyte-derived macrophages (RT activity in supernatant); type: cell-based
# Experimental: (§2) To test the effect of NSC 13987 in the context of natural infection, monocyte-derived macrophages (MDM) were infected with HIV-1 ADA, treated with NSC 13987 and cholesterol efflux was measured.
# (§3) Specifically, in panel (A) THP-1 cells were transfected with Nef and incubated with compounds NSC 1758, NSC 13987 and NSC 92938 or DMSO, and cholesterol efflux was measured 5 days post-transfection. Error bars show SEM. In panel (B) primary macrophages were infected in triplicate with HIV-1 ADA. Compound NSC 13987 (5 μM) or DMSO was added 3 days after infection and maintained thereafter, and virus replication was monitored by measuring RT-activity in the supernatant over a 14-day period. Results of 3 measurements are shown as mean ±SEM. *, p<0.005; **, p<0.007. In panel (C) primary macrophages were infected with HIV-1 ADA or mock-infected and treated with DMSO or NSC13987 as in panel B. Cholesterol efflux was measured 14 days post-infection. Error bars show SEM.
# [2] = tested on: monocyte-derived macrophages (MDM) infected with HIV-1 ADA; assay: Cholesterol efflux from HIV-1 ADA infected monocyte-derived macrophages; type: cell-based; conditions: 14 days post-infection, versus mock-infected cells
# Experimental: as §2, §3
# Cholesterol Efflux—Infected cells were seeded in a 24-well plate and labeled with [^3H] cholesterol for 48 h. […] Level of radioactivity in the media as well as in the cells was determined by scintillation counting. Cholesterol efflux was calculated as the percentage of radioactivity in the media divided by the total amount measured in the cells and media. […]
# ABCA1 = ABCA1 abundance in the presence of Nef; type: cell-based
# calnexin (CNX) = biological target: T3, calnexin (CNX) (Homo sapiens, UniProt P27824); assay: Surface plasmon resonance, immobilized full-length calnexin; type: binding; conditions: myristoylated Nef injected at 6.25-200 nM, 25° C.
# T3 construct: Full length CNX and the C-terminal (cytoplasmic) domain of CNX (CNX-CT) were captured on CMS chips by amine coupling; His-tag (H8) (N); made in house; host or cells: E. coli BL21 DE
# T3 sequence (P27824 21-592): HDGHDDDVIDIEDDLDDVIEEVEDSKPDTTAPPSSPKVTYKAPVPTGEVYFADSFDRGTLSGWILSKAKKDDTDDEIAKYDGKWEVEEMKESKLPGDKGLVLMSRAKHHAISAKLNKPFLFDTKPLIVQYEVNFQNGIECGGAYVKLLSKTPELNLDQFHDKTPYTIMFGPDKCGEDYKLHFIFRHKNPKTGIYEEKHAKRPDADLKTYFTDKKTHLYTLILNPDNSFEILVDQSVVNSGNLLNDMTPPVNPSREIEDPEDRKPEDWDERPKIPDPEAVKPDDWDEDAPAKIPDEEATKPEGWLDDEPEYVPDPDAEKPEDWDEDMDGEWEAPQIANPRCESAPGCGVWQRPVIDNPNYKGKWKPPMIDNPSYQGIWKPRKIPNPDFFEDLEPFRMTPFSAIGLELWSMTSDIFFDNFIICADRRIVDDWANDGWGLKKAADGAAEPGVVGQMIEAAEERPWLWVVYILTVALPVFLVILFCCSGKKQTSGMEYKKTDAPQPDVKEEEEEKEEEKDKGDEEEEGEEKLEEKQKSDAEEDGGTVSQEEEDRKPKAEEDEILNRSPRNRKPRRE
# Experimental: (§4) Binding of myristoylated NefsF2 (33) to CNX and its cytoplasmic domain was analyzed using surface plasmon resonance (FIGS. 5B,C). CNX and CNX-CT were immobilized on microchip surfaces and myristoylated Nef was injected over the surface.
# Steps of full-length CL7-tagged calnexin (CNX-CL7) purification are shown in detail. Whole cell lysate (WCL) was centrifuged to remove cell debris, the supernatant (SN) was treated with 0.07% polyethylene-emine (PE) to precipitate DNA, the pellet (PL), which contained most of CNX protein, was washed with detergent-containing buffer to release CNX into solution, centrifuged and the resulting supernatant was loaded on Immunity protein 7 (Im7) column. […] ACNX—truncated CNX fragment; SUMO—SUMO domain; P(PSC), P(SUMOP)—cleavage sites for the PSC and SUMO proteases, respectively; H8—8-Histidine tag (SEQ ID NO: 2). In panels (B) and (C), surface plasmon resonance experiments were done in a Biacore T-200 by using a CMS chip. […]
# Surface Plasmon Resonance Experiments—Direct binding between purified recombinant proteins was evaluated by surface plasmon resonance technology utilizing a Biacore T-200 instrument at the Biacore Molecular Interaction Shared Resource of Georgetown University. […] The data was analyzed by BiaEvaluation software using the bivalent analyte model.
# [3] = biological target: T4, cytoplasmic tail of CNX (CNX-CT) (Homo sapiens, UniProt P27824); assay: Surface plasmon resonance, immobilized calnexin cytoplasmic tail; type: binding; conditions: myristoylated Nef injected at 6.25-200 nM, 25° C.
# T4 construct: the C-terminal (cytoplasmic) domain of CNX (CNX-CT) were captured on CMS chips by amine coupling; His-tag (N); SUMO domain (N); made in house; host or cells: E. coli BL21 DE
# T4 sequence (P27824 503-592 limits assumed): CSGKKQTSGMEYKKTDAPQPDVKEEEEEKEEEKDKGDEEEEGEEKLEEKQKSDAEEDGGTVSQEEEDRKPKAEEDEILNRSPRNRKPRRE
# Experimental: as §4
# Steps of full-length CL7-tagged calnexin (CNX-CL7) purification are shown in detail. Whole cell lysate (WCL) was centrifuged to remove cell debris, the supernatant (SN) was treated with 0.07% polyethylene-emine (PE) to precipitate DNA, the pellet (PL), which contained most of CNX protein, was washed with detergent-containing buffer to release CNX into solution, centrifuged and the resulting supernatant was loaded on Immunity protein 7 (Im7) column. […] ACNX—truncated CNX fragment; SUMO—SUMO domain; P(PSC), P(SUMOP)—cleavage sites for the PSC and SUMO proteases, respectively; H8—8-Histidine tag (SEQ ID NO: 2). In panels (B) and (C), surface plasmon resonance experiments were done in a Biacore T-200 by using a CMS chip. […] Lines representing actual data and a curve fit to a […] analyte binding model in BiaEvaluation software are shown.
# Surface Plasmon Resonance Experiments—Direct binding between purified recombinant proteins was evaluated by surface plasmon resonance technology utilizing a Biacore T-200 instrument at the Biacore Molecular Interaction Shared Resource of Georgetown University. Full length CNX and the C-terminal (cytoplasmic) domain of CNX (CNX-CT) were captured on CMS chips by amine coupling. Three surfaces of CM5 chip were activated by NHS/CDC (N-hydroxysuccinimide/1-ethyl-3-(3-dimethylaminopropyl)carbodiimide hydrochloride) for 720 sec. Flow cell 1 was left empty as a reference surface. Full length CNX and CNX-CT were diluted in 10 mM sodium acetate (pH 4.0) buffer at 1.8 μM and 10.6 μM, respectively, and captured on flow cell 3 and flow cell 2, at 3200 RU and 16600 RU, respectively. After protein capture, all 3 flow cells were inactivated by 720 sec injection of 1 M ethanolamine. […] The data was analyzed by BiaEvaluation software using the bivalent analyte model.
# T2 sequence (O95477 whole entry, other chains not shown): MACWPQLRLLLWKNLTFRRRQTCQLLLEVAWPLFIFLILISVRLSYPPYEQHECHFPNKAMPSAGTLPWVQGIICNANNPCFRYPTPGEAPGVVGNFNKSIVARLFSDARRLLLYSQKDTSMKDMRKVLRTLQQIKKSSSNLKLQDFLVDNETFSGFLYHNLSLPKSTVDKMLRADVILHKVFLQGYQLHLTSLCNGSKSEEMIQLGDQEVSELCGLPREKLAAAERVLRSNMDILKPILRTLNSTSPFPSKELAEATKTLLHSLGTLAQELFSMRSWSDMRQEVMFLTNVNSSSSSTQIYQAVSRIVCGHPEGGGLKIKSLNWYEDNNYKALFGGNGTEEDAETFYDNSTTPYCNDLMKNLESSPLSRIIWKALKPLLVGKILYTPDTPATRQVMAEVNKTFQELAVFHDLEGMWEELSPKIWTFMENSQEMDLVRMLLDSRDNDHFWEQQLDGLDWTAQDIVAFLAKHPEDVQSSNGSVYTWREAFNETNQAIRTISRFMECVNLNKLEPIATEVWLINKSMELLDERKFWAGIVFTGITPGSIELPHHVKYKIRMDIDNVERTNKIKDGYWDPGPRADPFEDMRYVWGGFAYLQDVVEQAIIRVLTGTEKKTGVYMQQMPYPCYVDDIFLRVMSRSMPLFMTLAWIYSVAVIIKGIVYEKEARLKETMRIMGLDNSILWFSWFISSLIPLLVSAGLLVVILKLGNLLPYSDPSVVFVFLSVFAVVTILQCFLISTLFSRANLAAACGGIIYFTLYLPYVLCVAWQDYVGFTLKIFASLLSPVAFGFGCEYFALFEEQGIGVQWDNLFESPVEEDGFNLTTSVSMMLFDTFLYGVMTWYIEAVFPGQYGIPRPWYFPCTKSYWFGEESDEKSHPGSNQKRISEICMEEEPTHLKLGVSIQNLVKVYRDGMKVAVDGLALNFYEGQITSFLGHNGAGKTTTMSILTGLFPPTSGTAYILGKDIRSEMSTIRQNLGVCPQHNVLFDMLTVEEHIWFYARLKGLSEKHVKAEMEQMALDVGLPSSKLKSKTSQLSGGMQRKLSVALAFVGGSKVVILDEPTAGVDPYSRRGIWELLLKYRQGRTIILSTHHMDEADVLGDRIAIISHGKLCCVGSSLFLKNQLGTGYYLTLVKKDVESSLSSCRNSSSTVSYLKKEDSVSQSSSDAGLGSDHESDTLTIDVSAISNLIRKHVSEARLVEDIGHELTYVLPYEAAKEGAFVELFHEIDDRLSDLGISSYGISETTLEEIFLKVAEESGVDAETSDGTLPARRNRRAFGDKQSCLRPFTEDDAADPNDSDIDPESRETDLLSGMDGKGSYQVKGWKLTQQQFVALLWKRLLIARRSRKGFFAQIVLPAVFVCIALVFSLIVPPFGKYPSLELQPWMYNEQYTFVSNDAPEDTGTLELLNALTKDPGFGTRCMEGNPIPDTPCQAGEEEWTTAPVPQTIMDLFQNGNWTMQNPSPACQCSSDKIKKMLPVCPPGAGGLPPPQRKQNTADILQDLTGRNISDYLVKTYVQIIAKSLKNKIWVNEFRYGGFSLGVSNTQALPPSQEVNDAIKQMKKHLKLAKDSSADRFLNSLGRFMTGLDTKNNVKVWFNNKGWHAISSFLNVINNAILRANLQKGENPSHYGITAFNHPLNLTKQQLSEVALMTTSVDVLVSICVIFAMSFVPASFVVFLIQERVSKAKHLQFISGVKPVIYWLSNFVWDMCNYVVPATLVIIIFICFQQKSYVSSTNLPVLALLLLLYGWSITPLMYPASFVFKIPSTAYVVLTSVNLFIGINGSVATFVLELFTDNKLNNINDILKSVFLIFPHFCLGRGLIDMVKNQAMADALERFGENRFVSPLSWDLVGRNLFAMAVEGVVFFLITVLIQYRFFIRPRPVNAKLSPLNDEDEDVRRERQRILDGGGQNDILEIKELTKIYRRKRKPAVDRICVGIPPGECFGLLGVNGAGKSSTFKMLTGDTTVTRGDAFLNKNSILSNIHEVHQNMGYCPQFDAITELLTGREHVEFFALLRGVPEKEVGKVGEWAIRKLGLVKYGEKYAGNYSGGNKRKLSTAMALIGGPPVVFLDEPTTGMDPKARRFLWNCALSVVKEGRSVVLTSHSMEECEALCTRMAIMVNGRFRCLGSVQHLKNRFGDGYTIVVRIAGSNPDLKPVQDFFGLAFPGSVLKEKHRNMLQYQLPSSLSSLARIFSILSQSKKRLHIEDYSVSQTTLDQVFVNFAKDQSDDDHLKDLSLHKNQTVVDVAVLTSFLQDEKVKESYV
compound,measurement,setting,value
"N=C(Nc1cc2ccccc2c2ccccc12)Nc1cc2ccccc2c2ccccc12 [NSC 1758, 1,3-DI-9-Phenanthrylguanidine]",inhibition of co-immunoprecipitation of Nef and calnexin,Nef/CNX interaction; 4 μM,showed a trend towards inhibiting Nef/CNX binding but did not reach statistical significance
"O=C1c2ccccc2C(=O)c2c(Nc3ccc4c5c(cccc35)C(=O)c3ccccc3-4)cccc21 [NSC 13987, 1[(7-Oxo-7H-benz[de]anthracene-3-yl)amino] anthraquinone]",cholesterol efflux in Nef-transfected cells,[1],significantly increased; also recorded: restored cholesterol efflux impaired by Nef
same,effect on ABCA1/Nef interaction,ABCA1/Nef interaction,remained unaffected
same,viral replication in the presence of the compound,"HIV-1 ADA; 5 μM added 3 days after infection, RT activity over 14 days, primary macrophages",reduced
same,inhibition of viral replication,"HIV-1 ADA; FIG. 7B, HIV-1 ADA in primary macrophages, 5 μM",~2 fold
same,cholesterol efflux from HIV-infected cells,[2],not significantly different from that of mock-infected cells
same,inhibition of co-immunoprecipitation of Nef and calnexin,Nef/CNX interaction; 5 μM,prevented co-precipitation of CNX with Nef
same,inhibition at 5 µM,"Nef/CNX interaction; HEK-293T, read-out: inhibition of co-immunoprecipitation of Nef and calnexin",> 50%
same,Nef-mediated effect on ABCA1 abundance,ABCA1,reversed Nef-mediated effect on ABCA1 abundance
"O=C1c2ccccc2C(=O)c2c1ccc1c2[nH]c2ccccc21 [NSC 92938, 5H-Naphtho(2,3-a)carbazole-5,13(12H)-dione]",inhibition of co-immunoprecipitation of Nef and calnexin,Nef/CNX interaction; 5 μM,showed a trend towards inhibiting Nef/CNX binding but did not reach statistical significance
NefSF2: myristoylated HIV-1 Nef SF2 protein injected over immobilized calnexin in surface plasmon resonance,ka,calnexin (CNX),133800 M⁻¹ s⁻¹
same,kd,calnexin (CNX),0.01192 s⁻¹
same,ka,[3],908300 M⁻¹ s⁻¹
same,kd,[3],0.008569 s⁻¹
same,Kd,"[3]; Biacore T-200, read-out: affinity (KD)",9.4 nM
